Where two headings read alike, the source gives them in different places.
Legend:
[1] = target: T1, first (BD1: amino acids K57-E168) bromodomain of BRD4 (Homo sapiens, UniProt O60885); assay: TR-FRET bromodomain binding assay, BRD4 BD1; details: Ki calculated from IC50, probe Kd and probe concentration, read-out: TR-FRET Binding Ki: BRD4 (BDI_K57-E168)
T1 construct: His-tagged first (BD1: amino acids K57-E168)
Summary of the method: (§1)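 Compounds were serially diluted in DMSO, diluted into pH 6.0 phosphate buffer with NaCl, EDTA, Triton X-100 and DTT, then combined with His-tagged bromodomain and an Alexa647-labeled BET-inhibitor probe. TR-FRET was read, percent inhibition fitted to give IC50, and Ki derived using probe Kd.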

[2] = target: T2, second (BD2: amino acids E352-E168) bromodomain of BRD4 (Homo sapiens, UniProt O60885); assay: TR-FRET bromodomain binding assay, BRD4 BD2; details: Ki calculated from IC50, probe Kd and probe concentration, read-out: TR-FRET Binding Ki: BRD4 (BDII_E352-M457)
T2 construct: protocol
Summary of the method: as §1

[3] = tested on: breast cancer cell line MX-1; assay: MX-1 cell line proliferation assay (3-day); type: cell-based; details: Homo sapiens, MX1, MX-1 cells, Cell Titer Glo, read-out: Cellular proliferation: EC50
Summary of the method: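 EC50 derived by sigmoidal fitting of Cell Titer Glo signal relative to DMSO controls. Compound, 3 μM down to 0.0001 μM final in 3-fold steps, was added to adhered MX-1 cells (5000/well, RPMI + 10% FBS) for a 3-day incubation at 37° C.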

[4] = TR-FRET assay protocol (A-G, compound concentration range)
[5] = TR-FRET assay protocol (D, E or G) per compound

| Structure (SMILES) | Ki [1, 4] | Ki [2, 4] | EC50 ([3]; 72 h incubation) | Ki [1, 5] | Ki [2, 5] | EC50 ([3]; 72 hours with compound) |
| --- | --- | --- | --- | --- | --- | --- |
| CC(=O)Nc1ccc(Oc2ccccc2)c(-c2ccc(=O)n(C)n2)c1 [Example 12, N-[3-(1-methyl-6-oxo-1,6-dihydropyridazin-3-yl)-4-phenoxyphenyl]acetamide] | 0.575 µM | 0.696 µM | 2.66 µM |  |  |  |
| COCc1ccc(-c2cc(=O)n(C)nc2-c2ccccc2Oc2ccccc2)cc1 [Example 78, 5-[4-(methoxymethyl)phenyl]-2-methyl-6-(2-phenoxyphenyl)pyridazin-3(2H)-one] | 0.435 µM | 0.211 µM | > 3 µM |  |  |  |
| CCOc1cc(=O)n(C)cc1-c1cc(NC(=O)c2ccc(COc3ccccc3)cc2)ccc1Oc1ccc(F)cc1F [Example 297, N-[4-(2,4-difluorophenoxy)-3-(4-ethoxy-1-methyl-6-oxo-1,6-dihydropyridin-3-yl)phenyl]-4-(phenoxymethyl)benzamide] | > 0.238 µM | 0.256 µM | 2.42 µM |  |  |  |
| CCOc1cc(=O)n(C)cc1-c1cc(S(=O)(=O)N2CCc3ccccc32)ccc1Oc1ccc(F)cc1F [Example 419, 5-[2-(2,4-difluorophenoxy)-5-(2,3-dihydro-1H-indol-1-ylsulfonyl)phenyl]-4-ethoxy-1-methylpyridin-2(1H)-one] |  |  |  | 0.0253 µM | 0.00284 µM | 1 µM |
| CCS(=O)(=O)Nc1ccc(Oc2ccc(F)cc2F)c(-c2cn(C)c(=O)cc2OC2COC2)c1 [Example 316, N-{4-(2,4-difluorophenoxy)-3-[1-methyl-4-(oxetan-3-yloxy)-6-oxo-1,6-dihydropyridin-3-yl]phenyl}ethanesulfonamide] | 0.0039 µM | 0.000809 µM | 0.0247 µM |  |  |  |
| CCS(=O)(=O)Nc1ccc(Oc2ccc(F)cc2F)c(-c2cn(C)c(=O)cc2-c2ccc(N3CCN(C)CC3)cc2)c1 [Example 330, N-[4-(2,4-difluorophenoxy)-3-{1-methyl-4-[4-(4-methylpiperazin-1-yl)phenyl]-6-oxo-1,6-dihydropyridin-3-yl}phenyl]ethanesulfonamide] | 0.00196 µM | 0.000584 µM | 0.0497 µM |  |  |  |
| COc1cc(-c2cc(=O)n(C)nc2-c2cc(NS(C)(=O)=O)ccc2Oc2ccccc2)ccn1 [Example 58, N-{3-[4-(2-methoxypyridin-4-yl)-1-methyl-6-oxo-1,6-dihydropyridazin-3-yl]-4-phenoxyphenyl}methanesulfonamide] | 0.264 µM | 0.0635 µM | 0.444 µM |  |  |  |
| Cn1cc(-c2cc(NS(=O)(=O)CC(=O)O)ccc2Oc2ccccc2)ccc1=O [Example 226, {[3-(1-methyl-6-oxo-1,6-dihydropyridin-3-yl)-4-phenoxyphenyl]sulfamoyl}acetic acid] | 0.271 µM | 1.13 µM | 10 µM |  |  |  |
| COc1cc(=O)n(C)nc1-c1cc(N(C)S(C)(=O)=O)ccc1Oc1ccccc1 [Example 23, N-[3-(4-methoxy-1-methyl-6-oxo-1,6-dihydropyridazin-3-yl)-4-phenoxyphenyl]-N-methylmethanesulfonamide] | 0.48 µM | 0.214 µM | 3.8 µM |  |  |  |
| COC(=O)c1cc(=O)n(C)nc1-c1ccccc1Oc1ccccc1 [Example 218, methyl 1-methyl-6-oxo-3-(2-phenoxyphenyl)-1,6-dihydropyridazine-4-carboxylate] | 0.778 µM | 1.14 µM | 9.7 µM |  |  |  |
| CCS(=O)(=O)Nc1ccc(Oc2ccc(F)cc2F)c(-c2cn(C)c(=O)cc2-c2ccc(CN3CCN(C)CC3)cc2)c1 [Example 279, N-[4-(2,4-difluorophenoxy)-3-(1-methyl-4-{4-[(4-methylpiperazin-1-yl)methyl]phenyl}-6-oxo-1,6-dihydropyridin-3-yl)phenyl]ethanesulfonamide] | 0.00273 µM | 0.0013 µM | 0.0454 µM |  |  |  |
| Cn1cc(-c2cc(NS(=O)(=O)CC(F)(F)F)ccc2Oc2ccccc2)ccc1=O [Example 229, 2,2,2-trifluoro-N-[3-(1-methyl-6-oxo-1,6-dihydropyridin-3-yl)-4-phenoxyphenyl]ethanesulfonamide] | 0.0318 µM | 0.0218 µM | 0.507 µM |  |  |  |
| CCOc1cc(=O)n(C)cc1-c1cc(S(C)(=O)=O)ccc1NCC1CC1 [Example 340, 5-{2-[(cyclopropylmethyl)amino]-5-(methylsulfonyl)phenyl}-4-ethoxy-1-methylpyridin-2(1H)-one] | 0.225 µM | 0.251 µM | 0.384 µM |  |  |  |
| CC(=O)NCc1ccc(Oc2ccccc2)c(-c2ccc(=O)n(C)n2)c1 [Example 16, N-[3-(1-methyl-6-oxo-1,6-dihydropyridazin-3-yl)-4-phenoxybenzyl]acetamide] | 1.11 µM | 8.42 µM | 5.9 µM |  |  |  |

Continued, values first:

| Ki [1, 4] | Ki [2, 4] | EC50 ([3]; 72 h incubation) | Ki [1, 5] | Ki [2, 5] | EC50 ([3]; 72 hours with compound) | Structure (SMILES) |
| --- | --- | --- | --- | --- | --- | --- |
| 0.05 µM | 0.00915 µM | 0.423 µM |  |  |  | CCS(=O)(=O)Nc1ccc(Oc2ccc(F)cc2F)c(-c2cn(C)c(=O)cc2O[C@H]2CC[C@H](N(C)C)CC2)c1 [Example 321, N-[4-(2,4-difluorophenoxy)-3-(4-{[trans-4-(dimethylamino)cyclohexyl]oxy}-1-methyl-6-oxo-1,6-dihydropyridin-3-yl)phenyl]ethanesulfonamide] |
| 0.0335 µM | 0.0553 µM | 0.176 µM |  |  |  | CCS(=O)(=O)Nc1ccc(Oc2ccc(F)cc2F)c(-c2c[nH]c(=O)c(C)c2)c1 [Example 264, N-[4-(2,4-difluorophenoxy)-3-(5-methyl-6-oxo-1,6-dihydropyridin-3-yl)phenyl]ethanesulfonamide] |
| 0.169 µM | 0.0534 µM | 1.56 µM |  |  |  | CCOc1cc(=O)n(C)cc1-c1cc(NS(=O)(=O)c2ccc(C(C)C)cc2)ccc1Oc1ccc(F)cc1F [Example 347, N-[4-(2,4-difluorophenoxy)-3-(4-ethoxy-1-methyl-6-oxo-1,6-dihydropyridin-3-yl)phenyl]-4-(propan-2-yl)benzenesulfonamide] |
| 2.55 µM | 1.22 µM | 11.5 µM |  |  |  | Cn1nc(-c2cc(C(N)=O)ccc2Oc2ccccc2)ccc1=O [Example 14, 3-(1-methyl-6-oxo-1,6-dihydropyridazin-3-yl)-4-phenoxybenzamide] |
| 0.569 µM | 0.104 µM | 0.8 µM |  |  |  | COc1cc(=O)n(C)nc1-c1cc(NS(=O)(=O)C2CCCC2)ccc1Oc1ccccc1 [Example 26, N-[3-(4-methoxy-1-methyl-6-oxo-1,6-dihydropyridazin-3-yl)-4-phenoxyphenyl]cyclopentanesulfonamide] |
| 0.249 µM | 0.139 µM | > 3 µM |  |  |  | CNC(=O)c1ccc(-c2cc(=O)n(C)nc2-c2ccccc2Oc2ccccc2)cc1 [Example 127, N-methyl-4-[1-methyl-6-oxo-3-(2-phenoxyphenyl)-1,6-dihydropyridazin-4-yl]benzamide] |
| 0.922 µM | 0.688 µM | > 3 µM |  |  |  | Cn1cc(-c2cc(NS(C)(=O)=O)ccc2Oc2ccc(F)cc2F)c(C(F)(F)F)cc1=O [Example 5, N-{4-(2,4-difluorophenoxy)-3-[1-methyl-6-oxo-4-(trifluoromethyl)-1,6-dihydropyridin-3-yl]phenyl}methanesulfonamide] |
|  |  |  | 0.105 µM | 0.221 µM | 0.479 µM | CCOc1cc(=O)n(C)cc1-c1cc(NS(=O)(=O)CC)ccc1O[C@H]1CC[C@H](NC(=O)OC(C)(C)C)CC1 [Example 395, tert-butyl(trans-4-{2-(4-ethoxy-1-methyl-6-oxo-1,6-dihydropyridin-3-yl)-4-[(ethylsulfonyl)amino]phenoxy}cyclohexyl)carbamate] |

— US9561231B2 (AbbVie Inc., priority 2012, dated 2017)
